Source: BindingDB's records for doi:10.1016/j.bmcl.2011.10.055 (Cephalon, 2011)

biological target: Insulin receptor (Homo sapiens, UniProt P06213); assay: Inhibition of GST-tagged intracellular domain of IR by homogeneous time-resolved fluorescence assay

IC50 [µM] | Compound
> 10 | C=c1nns/c1=c1\[nH][nH]c(=O)c1=Cc1cn(C)c2cccc(OCc3ccccc3)c12
> 10 | C=c1nns/c1=c1\[nH][nH]c(=O)c1=Cc1cn(C)c2cccc(OCc3ccccc3F)c12
> 10 | C=c1nns/c1=c1\[nH][nH]c(=O)c1=Cc1cn(C)c2cccc(OCc3cccc(F)c3)c12
> 10 | C=c1nns/c1=c1\[nH][nH]c(=O)c1=Cc1cn(C)c2cccc(OCc3ccc(F)cc3)c12
> 10 | C=c1nns/c1=c1\[nH][nH]c(=O)c1=Cc1cn(C)c2cccc(OCc3ccc(F)cc3F)c12
